Measured values published in ChEMBL document CHEMBL1129592 (J Med Chem, 1996).

How the values were obtained:
[1] = target: 5-hydroxytryptamine receptor 2A (Rattus norvegicus, UniProt P14842); assay: Binding affinity towards rat 5-hydroxytryptamine 2A receptor was evaluated using [3H]- ketanserin as radioligand
[2] = Selectivity ratio of IC50 values of 5-hydroxytryptamine 1A receptor vs 5-hydroxytryptamine 2 receptor
[3] = target: D(2) dopamine receptor (Rattus norvegicus, UniProt P61169); assay: Binding affinity towards rat Dopamine receptor D2 was evaluated using [3H]- spiroperidol as radioligand
Sequence of D(2) dopamine receptor (P61169 whole entry): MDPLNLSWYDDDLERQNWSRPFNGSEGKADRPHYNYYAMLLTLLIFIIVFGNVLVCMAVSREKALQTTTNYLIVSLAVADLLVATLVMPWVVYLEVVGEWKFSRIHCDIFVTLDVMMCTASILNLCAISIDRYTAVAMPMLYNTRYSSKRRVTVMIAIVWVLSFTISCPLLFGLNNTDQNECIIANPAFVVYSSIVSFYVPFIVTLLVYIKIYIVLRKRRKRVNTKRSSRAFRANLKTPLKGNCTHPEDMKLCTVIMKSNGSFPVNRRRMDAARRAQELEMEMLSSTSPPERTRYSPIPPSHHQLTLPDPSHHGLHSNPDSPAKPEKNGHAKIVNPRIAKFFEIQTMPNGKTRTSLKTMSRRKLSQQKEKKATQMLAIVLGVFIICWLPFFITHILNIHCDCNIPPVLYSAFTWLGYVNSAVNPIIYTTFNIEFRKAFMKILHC

[4] = target: T1, Adrenergic receptor alpha-2 (Rattus norvegicus, UniProt P22086+P19328+P22909); assay: Binding affinity towards rat Alpha-2 adrenergic receptor was evaluated using [3H]- yohimbine as radioligand; type: protein assay
T1 sequence (P22086 whole entry): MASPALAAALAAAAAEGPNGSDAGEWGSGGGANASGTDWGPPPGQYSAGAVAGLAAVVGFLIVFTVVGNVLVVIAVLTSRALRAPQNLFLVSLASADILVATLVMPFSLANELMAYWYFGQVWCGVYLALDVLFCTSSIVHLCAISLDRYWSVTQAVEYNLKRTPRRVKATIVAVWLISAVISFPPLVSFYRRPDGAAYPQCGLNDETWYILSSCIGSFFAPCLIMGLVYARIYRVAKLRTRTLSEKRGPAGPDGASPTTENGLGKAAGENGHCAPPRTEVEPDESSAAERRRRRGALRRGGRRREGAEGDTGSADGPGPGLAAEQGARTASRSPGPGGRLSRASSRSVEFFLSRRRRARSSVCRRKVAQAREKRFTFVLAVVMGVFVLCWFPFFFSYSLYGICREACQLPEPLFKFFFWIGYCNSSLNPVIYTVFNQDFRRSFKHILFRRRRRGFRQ
T1 sequence (P19328 whole entry): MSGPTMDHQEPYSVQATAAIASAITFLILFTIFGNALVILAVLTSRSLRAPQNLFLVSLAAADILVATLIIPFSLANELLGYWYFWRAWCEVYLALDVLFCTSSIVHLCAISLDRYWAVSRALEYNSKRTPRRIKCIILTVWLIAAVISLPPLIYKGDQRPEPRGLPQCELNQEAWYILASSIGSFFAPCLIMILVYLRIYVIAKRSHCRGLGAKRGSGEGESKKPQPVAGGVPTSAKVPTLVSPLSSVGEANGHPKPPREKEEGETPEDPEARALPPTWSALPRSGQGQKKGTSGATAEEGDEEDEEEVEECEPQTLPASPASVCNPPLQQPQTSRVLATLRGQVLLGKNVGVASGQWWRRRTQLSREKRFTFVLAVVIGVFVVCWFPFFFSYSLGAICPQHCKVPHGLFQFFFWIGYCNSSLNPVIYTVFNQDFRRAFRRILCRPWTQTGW
T1 sequence (P22909 whole entry): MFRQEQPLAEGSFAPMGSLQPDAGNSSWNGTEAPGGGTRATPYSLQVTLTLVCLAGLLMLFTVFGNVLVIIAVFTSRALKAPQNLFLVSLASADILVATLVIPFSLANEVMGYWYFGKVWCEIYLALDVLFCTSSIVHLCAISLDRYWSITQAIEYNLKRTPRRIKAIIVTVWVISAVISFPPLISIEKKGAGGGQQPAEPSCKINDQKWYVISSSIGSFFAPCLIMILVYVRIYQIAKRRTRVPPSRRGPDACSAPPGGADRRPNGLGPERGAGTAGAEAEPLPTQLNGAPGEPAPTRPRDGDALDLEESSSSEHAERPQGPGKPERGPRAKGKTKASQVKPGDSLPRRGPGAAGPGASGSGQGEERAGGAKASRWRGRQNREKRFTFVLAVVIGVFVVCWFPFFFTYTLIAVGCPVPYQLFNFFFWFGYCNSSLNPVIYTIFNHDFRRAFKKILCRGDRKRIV

[5] = Selectivity ratio of IC50 values of 5-hydroxytryptamine 1A receptor vs Alpha-2 adrenergic receptor
[6] = target: T2, Adrenergic receptor alpha-1 (Rattus norvegicus, UniProt P15823+P23944+P43140); assay: Binding affinity towards rat Alpha-1 adrenergic receptor was evaluated using [3H]- prazosin as radioligand; type: protein assay
T2 sequence (P15823 whole entry): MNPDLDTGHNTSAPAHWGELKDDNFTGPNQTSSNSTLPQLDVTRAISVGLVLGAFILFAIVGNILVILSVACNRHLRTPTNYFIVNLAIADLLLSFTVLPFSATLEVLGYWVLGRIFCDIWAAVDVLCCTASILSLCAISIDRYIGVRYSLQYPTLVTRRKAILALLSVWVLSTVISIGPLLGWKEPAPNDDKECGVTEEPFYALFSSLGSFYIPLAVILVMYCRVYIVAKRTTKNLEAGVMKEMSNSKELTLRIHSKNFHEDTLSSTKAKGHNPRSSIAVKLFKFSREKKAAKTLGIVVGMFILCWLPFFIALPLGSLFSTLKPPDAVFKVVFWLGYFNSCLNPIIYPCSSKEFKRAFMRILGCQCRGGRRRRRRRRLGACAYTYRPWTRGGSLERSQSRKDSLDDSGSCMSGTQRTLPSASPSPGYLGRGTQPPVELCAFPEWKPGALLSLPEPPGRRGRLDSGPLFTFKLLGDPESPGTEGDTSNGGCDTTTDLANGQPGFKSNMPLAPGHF
T2 sequence (P23944 whole entry): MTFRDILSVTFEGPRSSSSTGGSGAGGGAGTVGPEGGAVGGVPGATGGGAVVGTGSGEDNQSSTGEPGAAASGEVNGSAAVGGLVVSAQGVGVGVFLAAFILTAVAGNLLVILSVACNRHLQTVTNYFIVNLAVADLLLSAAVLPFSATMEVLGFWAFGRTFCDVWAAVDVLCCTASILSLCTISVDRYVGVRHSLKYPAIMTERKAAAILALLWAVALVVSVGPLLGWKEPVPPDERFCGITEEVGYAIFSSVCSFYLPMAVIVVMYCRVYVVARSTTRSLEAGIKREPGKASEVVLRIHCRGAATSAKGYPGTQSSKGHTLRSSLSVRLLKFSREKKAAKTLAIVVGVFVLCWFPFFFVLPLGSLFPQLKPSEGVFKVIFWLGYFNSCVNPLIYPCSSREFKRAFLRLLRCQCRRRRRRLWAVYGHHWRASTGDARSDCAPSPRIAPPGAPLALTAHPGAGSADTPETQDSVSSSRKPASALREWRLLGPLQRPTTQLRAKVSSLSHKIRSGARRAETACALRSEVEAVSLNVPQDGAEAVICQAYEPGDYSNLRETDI
T2 sequence (P43140 whole entry): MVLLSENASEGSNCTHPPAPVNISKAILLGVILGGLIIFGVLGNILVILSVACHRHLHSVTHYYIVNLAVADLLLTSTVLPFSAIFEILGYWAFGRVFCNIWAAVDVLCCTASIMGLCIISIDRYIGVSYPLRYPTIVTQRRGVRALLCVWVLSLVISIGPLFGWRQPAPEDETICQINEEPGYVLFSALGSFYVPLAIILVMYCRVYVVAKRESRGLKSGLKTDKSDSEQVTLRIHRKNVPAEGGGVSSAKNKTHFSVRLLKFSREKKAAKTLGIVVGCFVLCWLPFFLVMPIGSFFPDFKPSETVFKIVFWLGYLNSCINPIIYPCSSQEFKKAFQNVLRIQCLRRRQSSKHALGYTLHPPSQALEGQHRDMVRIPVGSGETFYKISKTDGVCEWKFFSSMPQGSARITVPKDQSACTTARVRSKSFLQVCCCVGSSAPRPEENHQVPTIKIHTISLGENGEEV

[7] = target: T3, 5-hydroxytryptamine receptor 1A (Rattus norvegicus, UniProt P19327); assay: Binding affinity towards rat 5-hydroxytryptamine 1A receptor was evaluated using [3H]8-OH-DPAT as radioligand
T3 sequence (P19327 whole entry): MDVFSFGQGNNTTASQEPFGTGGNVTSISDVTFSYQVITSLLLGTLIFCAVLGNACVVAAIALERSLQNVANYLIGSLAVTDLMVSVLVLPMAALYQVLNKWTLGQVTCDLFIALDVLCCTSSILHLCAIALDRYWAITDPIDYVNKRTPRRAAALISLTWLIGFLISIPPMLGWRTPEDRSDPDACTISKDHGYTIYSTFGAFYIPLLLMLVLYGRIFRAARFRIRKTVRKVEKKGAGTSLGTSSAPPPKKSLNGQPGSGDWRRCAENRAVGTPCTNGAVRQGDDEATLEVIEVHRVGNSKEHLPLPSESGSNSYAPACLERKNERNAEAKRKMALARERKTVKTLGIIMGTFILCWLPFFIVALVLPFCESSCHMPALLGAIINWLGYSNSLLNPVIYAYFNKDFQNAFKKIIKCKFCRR

[8] = Selectivity ratio of IC50 values of 5-hydroxytryptamine 1A receptor vs dopamine receptor D2

Sequence of 5-hydroxytryptamine receptor 2A (P14842 whole entry): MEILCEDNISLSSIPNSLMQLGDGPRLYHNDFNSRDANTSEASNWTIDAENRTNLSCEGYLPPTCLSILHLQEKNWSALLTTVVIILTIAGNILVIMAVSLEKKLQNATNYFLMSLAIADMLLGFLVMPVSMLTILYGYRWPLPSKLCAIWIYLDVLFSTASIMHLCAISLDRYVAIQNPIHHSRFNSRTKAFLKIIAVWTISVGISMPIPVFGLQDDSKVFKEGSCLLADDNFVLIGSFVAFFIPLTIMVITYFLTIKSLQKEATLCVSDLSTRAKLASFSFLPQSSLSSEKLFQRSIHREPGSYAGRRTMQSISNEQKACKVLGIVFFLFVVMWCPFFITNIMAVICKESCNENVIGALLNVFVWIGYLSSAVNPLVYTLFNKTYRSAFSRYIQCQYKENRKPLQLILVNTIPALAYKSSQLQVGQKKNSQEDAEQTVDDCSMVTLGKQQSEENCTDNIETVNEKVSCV

| IC50 [1] [nM] | Selectivity ratio [2] | IC50 [3] [nM] | IC50 [4] [nM] | Selectivity ratio [5] | IC50 [6] [nM] | IC50 [7] [nM] | Selectivity ratio [8] | SMILES |
| --- | --- | --- | --- | --- | --- | --- | --- | --- |
| 106 | 15 | 136 | 122 | 18 | 58 | 7.3 | 22 | COc1ccc2c(c1)C=C(CCN1CCN(c3ccccc3)CC1)CC2 |
| 160 | 30 | 91 | 170 | 31 | 45 |  | 17 | COc1ccc2c(c1)CCCC2CCCN1CCN(c2ccccc2)CC1 (centres undefined) |
| 230 | 460 |  |  | 520 |  |  | 220 | COc1cccc2c1CCCC2CCCN1CCN(c2ccccc2)CC1 (centres undefined) |
| 86 | 23 | 120 | 160 | 43 | 79 | 3.7 | 32 | COc1ccc2c(c1)CCC(CCN1CCN(c3ccccc3)CC1)C2 (centres undefined) |
| 56 | 7 | 170 | 130 | 16 | 88 | 8.2 | 24 | COc1ccc2c(c1)CCC(CCN1CCN(c3ccccc3)CC1)=C2 |
| 230 | 64 | 100 | 260 | 72 | 80 | 3.6 | 28 | COc1ccc2c(c1)CC(CCN1CCN(c3ccccc3)CC1)CC2 (centres undefined) |
| 420 | 28 | 110 | 770 | 51 | 130 | 15 | 7 | COc1cccc2c1CCCC2CCCCN1CCN(c2ccccc2)CC1 (centres undefined) |
| 241 | 1 | 276 | 357 | 2 | 194 | 191 | 1 | COc1cccc2c1CCC(CCN1CCN(c3ccccc3)CC1)=C2 |
| 160 | 3 | 130 | 600 | 11 | 100 | 54 | 2 | COc1cccc2c1CCC(CCN1CCN(c3ccccc3)CC1)C2 (centres undefined) |
| 330 |  |  |  |  |  |  |  | COc1ccccc1N1CCN(CCCC2CCCc3c(OC)cccc32)CC1 (centres undefined) |
| 12 | 0.1 | 210 | 22 | 0.2 | 84 | 140 | 2 | COc1cccc2c1CCCC2CCN1CCN(c2ccccc2)CC1 (centres undefined) |
| 119 | 0.8 | 157 |  |  | 173 |  | 1 | COc1ccc2c(c1)C(CCCN1CCN(c3ccccc3)CC1)=CCC2 |
| 580 | 31 | 100 | 290 | 15 | 120 |  | 5 | COc1cccc2c1CCC/C2=C\CCN1CCN(c2ccccc2)CC1 |
| 250 | 462 |  |  | 89 |  |  | 259 | COc1cccc2c1CCCC2CCCN1CCN(c2ccccn2)CC1 (centres undefined) |
| 204 | 11 |  |  |  |  |  | 17 | COc1cccc2c1CCC=C2CCCN1CCN(c2ccccc2)CC1 |
| 610 | 11 | 62 | 140 | 3 | 130 | 56 | 1 | COc1cccc2c1C(CCCN1CCN(c3ccccc3)CC1)CCC2 (centres undefined) |

| SMILES | IC50 [1] [nM] | Selectivity ratio [2] | IC50 [3] [nM] | IC50 [4] [nM] | Selectivity ratio [5] | IC50 [6] [nM] | IC50 [7] [nM] | Selectivity ratio [8] |
| --- | --- | --- | --- | --- | --- | --- | --- | --- |
| CCCN(CCC)C1CCc2cccc(O)c2C1 (centres undefined) [8-OH-DPAT] | > 10000 |  |  |  |  |  |  |  |
